Measurements: patent US12780800B1, “Triazole-pyridinyl substituted azacyclohexyl acetic acid compounds as LPA receptor antagonists” (Viva Star Biosciences Limited, priority 2021, dated 2022)

Target: T1, LPA1 (Homo sapiens, UniProt Q92633)
T1 construct: ProLink (PK) beta-galactosidase enzyme-fragment tag; host or cells: CHO-K1
Test: LPA1 calcium flux assay (LPA1 functional antagonist assay)
Type: cell-based
Conditions: PathHunter CHO-K1 EDG2 β-Arrestin cell line; calcium indicator dye; stimulated with EC80 concentration of LPA; FLIPR Tetra
Method in brief: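 The LPA1 antagonist readout was intracellular calcium flux, and IC50 values were calculated from it. Plates stood 30 min at RT after compound addition. Cells, grown overnight, had first taken up calcium dye over 45 min at 37 °C.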

T1 sequence (Q92633 whole entry, the tested form may be a part): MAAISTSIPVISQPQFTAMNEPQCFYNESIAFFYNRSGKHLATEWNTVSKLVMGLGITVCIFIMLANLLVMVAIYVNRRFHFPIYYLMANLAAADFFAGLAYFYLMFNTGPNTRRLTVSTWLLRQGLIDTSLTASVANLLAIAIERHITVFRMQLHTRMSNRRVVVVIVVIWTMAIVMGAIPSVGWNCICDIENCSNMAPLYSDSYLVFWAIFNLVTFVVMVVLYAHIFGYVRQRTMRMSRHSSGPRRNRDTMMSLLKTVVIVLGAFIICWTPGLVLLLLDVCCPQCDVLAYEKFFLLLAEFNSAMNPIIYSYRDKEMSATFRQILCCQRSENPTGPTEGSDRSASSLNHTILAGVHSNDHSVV

| IC50 | SMILES |
| --- | --- |
| < 100 nM | CCc1nc(-c2nnn(C)c2COc2cc(C3CCC3)ncn2)ccc1N1CCC[C@H](CC(=O)O)C1 [Example 80, (R)-2-(1-(6-(5-(((6-cyclobutylpyrimidin-4-yl)oxy)methyl)-1-methyl-1H-1,2,3-triazol-4-yl)-2-ethylpyridin-3-yl)piperidin-3-yl)acetic acid] |
| > 5000 nM | CCc1nc(-c2nnn(C)c2COc2nccc(C3CCC3)n2)ccc1N1CCC[C@@H](CC(=O)O)C1 [Example 81, (S)-2-(1-(6-(5-(((4-cyclobutylpyrimidin-2-yl)oxy)methyl)-1-methyl-1H-1,2,3-triazol-4-yl)-2-ethylpyridin-3-yl)piperidin-3-yl)acetic acid] |
| < 100 nM | CCc1nc(-c2nnn(C)c2COc2cc(-n3cccn3)ncn2)ccc1N1CCC[C@H](CC(=O)O)C1 [Example 82, (R)-2-(1-(6-(5-(((6-(1H-pyrazol-1-yl)pyrimidin-4-yl)oxy)methyl)-1-methyl-1H-1,2,3-triazol-4-yl)-2-ethylpyridin-3-yl)piperidin-3-yl)acetic acid] |
| 100 to 500 nM | CCc1nc(-c2nnn(C)c2COc2nccc(N3CCCC3)n2)ccc1N1CCC[C@H](CC(=O)O)C1 [Example 83, (R)-2-(1-(2-ethyl-6-(1-methyl-5-(((4-(pyrrolidin-1-yl)pyrimidin-2-yl)oxy)methyl)-1H-1,2,3-triazol-4-yl)pyridin-3-yl)piperidin-3-yl)acetic acid] |
| < 100 nM | Cc1nc(-c2nnn(C)c2COc2nccc(C3CCC3)n2)ccc1N1CCC[C@H](CC(=O)O)C1 [Example 84, (R)-2-(1-(6-(5-(((4-cyclobutylpyrimidin-2-yl)oxy)methyl)-1-methyl-1H-1,2,3-triazol-4-yl)-2-methylpyridin-3-yl)piperidin-3-yl)acetic acid] |
| < 100 nM | Cc1nc(-c2nnn(C)c2COc2cc(-n3cccn3)ncn2)ccc1N1CCC[C@H](CC(=O)O)C1 [Example 85, (R)-2-(1-(6-(5-(((6-(1H-pyrazol-1-yl)pyrimidin-4-yl)oxy)methyl)-1-methyl-1H-1,2,3-triazol-4-yl)-2-methylpyridin-3-yl)piperidin-3-yl)acetic acid] |
| 100 to 500 nM | Cc1nc(-c2nnn(C)c2COc2nnccc2CC(C)C)ccc1N1C[C@@H](CC(=O)O)CC(F)(F)C1 [Example 86, (S)-2-(5,5-difluoro-1-(6-(5-(((4-isobutylpyridazin-3-yl)oxy)methyl)-1-methyl-1H-1,2,3-triazol-4-yl)-2-methylpyridin-3-yl)piperidin-3-yl)acetic acid] |
| < 100 nM | CCc1nc(-c2cnn(C)c2COc2nccc(C3CCC3)n2)ncc1N1C[C@@H](CC(=O)O)CC(F)(F)C1 [Example 87, (S)-2-(1-(2-(5-(((4-cyclobutylpyrimidin-2-yl)oxy)methyl)-1-methyl-1H-pyrazol-4-yl)-4-ethylpyrimidin-5-yl)-5,5-difluoropiperidin-3-yl)acetic acid] |
| 100 to 500 nM | CCc1nc(-c2nnn(C)c2COc2nccc(C3CCC3)n2)cc(F)c1N1CCCC(CC(=O)O)C1 (stereo not drawn) [Example 88, 2-(1-(6-(5-(((4-cyclobutylpyrimidin-2-yl)oxy)methyl)-1-methyl-1H-1,2,3-triazol-4-yl)-2-ethyl-4-fluoropyridin-3-yl)piperidin-3-yl)acetic acid] |
| < 100 nM | Cc1nc(-c2cnn(C)c2COc2cc(-n3cccn3)ncn2)ccc1N1C[C@@H](CC(=O)O)CC(F)(F)C1 [Example 89, (S)-2-(1-(6-(5-(((6-(1H-pyrazol-1-yl)pyrimidin-4-yl)oxy)methyl)-1-methyl-1H-pyrazol-4-yl)-2-methylpyridin-3-yl)-5,5-difluoropiperidin-3-yl)acetic acid] |
| < 100 nM | CCc1nc(-c2cnn(C)c2COc2cc(-n3cccn3)ncn2)ccc1N1CCC[C@H](CC(=O)O)C1 [Example 90, (R)-2-(1-(6-(5-(((6-(1H-pyrazol-1-yl)pyrimidin-4-yl)oxy)methyl)-1-methyl-1H-pyrazol-4-yl)-2-ethylpyridin-3-yl)piperidin-3-yl)acetic acid] |
| < 100 nM | CCc1nc(-c2nnn(C)c2COc2ncnc(C3CCC3)n2)ccc1N1CCC[C@H](CC(=O)O)C1 [Example 95, (R)-2-(1-(6-(5-(((4-cyclobutyl-1,3,5-triazin-2-yl)oxy)methyl)-1-methyl-1H-1,2,3-triazol-4-yl)-2-ethylpyridin-3-yl)piperidin-3-yl)acetic acid] |
| 100 to 500 nM | CCc1nc(-c2nnn(C)c2COc2nc(C3CCC3)nc(N3CCOCC3)n2)ccc1N1CCC[C@H](CC(=O)O)C1 [Example 96, (R)-2-(1-(6-(5-(((4-cyclobutyl-6-morpholino-1,3,5-triazin-2-yl)oxy)methyl)-1-methyl-1H-1,2,3-triazol-4-yl)-2-ethylpyridin-3-yl)piperidin-3-yl)acetic acid] |
| 100 to 500 nM | CCc1nc(-c2nnn(C)c2COc2cc(-n3ccnn3)ncn2)ccc1N1CCC[C@H](CC(=O)O)C1 [Example 97, 2-[(3R)-1-{2-ethyl-6-[1-methyl-5-({[6-(1H-1,2,3-triazol-1-yl)pyrimidin-4-yl]oxy}methyl)-1H-1,2,3-triazol-4-yl]pyridin-3-yl}piperidin-3-yl]acetic acid] |
| 100 to 500 nM | CCc1nc(-c2nnn(C)c2COc2cc(-n3nccn3)ncn2)ccc1N1CCC[C@H](CC(=O)O)C1 [Example 98, (R)-2-(1-(6-(5-(((6-(2H-1,2,3-triazol-2-yl)pyrimidin-4-yl)oxy)methyl)-1-methyl-1H-1,2,3-triazol-4-yl)-2-ethylpyridin-3-yl)piperidin-3-yl)acetic acid] |
| < 100 nM | Cc1nc(-c2nnn(C)c2COc2cc(-n3ccnn3)ncn2)ccc1N1C[C@@H](CC(=O)O)CC(F)(F)C1 [Example 99, (S)-2-(1-(6-(5-(((6-(1H-1,2,3-triazol-1-yl)pyrimidin-4-yl)oxy)methyl)-1-methyl-1H-1,2,3-triazol-4-yl)-2-methylpyridin-3-yl)-5,5-difluoropiperidin-3-yl)acetic acid] |
| < 100 nM | CCc1nc(-c2nnn(C)c2COc2nccc(-n3cccn3)n2)ccc1N1CCC[C@H](CC(=O)O)C1 [Example 101, (R)-2-(1-(6-(5-(((4-(1H-pyrazol-1-yl)pyrimidin-2-yl)oxy)methyl)-1-methyl-1H-1,2,3-triazol-4-yl)-2-ethylpyridin-3-yl)piperidin-3-yl)acetic acid] |
| < 100 nM | Cc1nc(-c2nnn(C)c2COc2nccc(-n3cccn3)n2)ccc1N1CCC[C@H](CC(=O)O)C1 [Example 102, (R)-2-(1-(6-(5-(((4-(1H-pyrazol-1-yl)pyrimidin-2-yl)oxy)methyl)-1-methyl-1H-1,2,3-triazol-4-yl)-2-methylpyridin-3-yl)piperidin-3-yl)acetic acid] |
| < 100 nM | Cc1nc(-c2nnn(C)c2COc2cc(-n3cccn3)ccn2)ccc1N1CCC[C@H](CC(=O)O)C1 [Example 103, (R)-2-(1-(6-(5-(((4-(1H-pyrazol-1-yl)pyridin-2-yl)oxy)methyl)-1-methyl-1H-1,2,3-triazol-4-yl)-2-methylpyridin-3-yl)piperidin-3-yl)acetic acid] |
| < 100 nM | Cc1nc(-c2nnn(C)c2COc2cc(-n3nccn3)ccn2)ccc1N1CCC[C@H](CC(=O)O)C1 [Example 104, (R)-2-(1-(6-(5-(((4-(2H-1,2,3-triazol-2-yl)pyridin-2-yl)oxy)methyl)-1-methyl-1H-1,2,3-triazol-4-yl)-2-methylpyridin-3-yl)piperidin-3-yl)acetic acid] |
| < 100 nM | Cc1nc(-c2onc(C)c2COc2cc(-n3cccn3)ncn2)ccc1N1C[C@@H](CC(=O)O)CC(F)(F)C1 [Example 105, (S)-2-(1-(6-(4-(((6-(1H-pyrazol-1-yl)pyrimidin-4-yl)oxy)methyl)-3-methylisoxazol-5-yl)-2-methylpyridin-3-yl)-5,5-difluoropiperidin-3-yl)acetic acid] |
| > 5000 nM | CCCn1ccnc(OCc2c(-c3ccc(N4C[C@@H](CC(=O)O)CC(F)(F)C4)c(C)n3)nnn2C)c1=O [Example 106, (S)-2-(5,5-difluoro-1-(2-methyl-6-(1-methyl-5-(((3-oxo-4-propyl-3,4-dihydropyrazin-2-yl)oxy)methyl)-1H-1,2,3-triazol-4-yl)pyridin-3-yl)piperidin-3-yl)acetic acid] |
| > 5000 nM | CCCn1ccc(=O)c(OCc2c(-c3ccc(N4C[C@@H](CC(=O)O)CC(F)(F)C4)c(CC)n3)nnn2C)c1 [Example 107, (S)-2-(1-(2-ethyl-6-(1-methyl-5-(((4-oxo-1-propyl-1,4-dihydropyridin-3-yl)oxy)methyl)-1H-1,2,3-triazol-4-yl)pyridin-3-yl)-5,5-difluoropiperidin-3-yl)acetic acid] |
| 500 to 5000 nM | CCCn1nc(OCc2c(-c3ccc(N4C[C@@H](CC(=O)O)CC(F)(F)C4)c(C)n3)nnn2C)ccc1=O [Example 108, (S)-2-(5,5-difluoro-1-(2-methyl-6-(1-methyl-5-(((6-oxo-1-propyl-1,6 dihydropyridazin-3-yl)oxy)methyl)-1H-1,2,3-triazol-4-yl)pyridin-3-yl)piperidin-3-yl)acetic acid] |
| 500 to 5000 nM | CCCn1cc(OCc2c(-c3ccc(N4C[C@@H](CC(=O)O)CC(F)(F)C4)c(CC)n3)nnn2C)c(=O)cn1 [Example 109, (S)-2-(1-(2-ethyl-6-(1-methyl-5-(((5-oxo-2-propyl-2,5-dihydropyridazin-4-yl)oxy)methyl)-1H-1,2,3-triazol-4-yl)pyridin-3-yl)-5,5-difluoropiperidin-3-yl)acetic acid] |
| > 5000 nM | CCCc1cn(C)c(=O)c(OCc2c(-c3ccc(N4C[C@@H](CC(=O)O)CC(F)(F)C4)c(CC)n3)nnn2C)n1 [Example 110, (S)-2-(1-(2-ethyl-6-(1-methyl-5-(((4-methyl-3-oxo-6-propyl-3,4-dihydropyrazin-2-yl)oxy)methyl)-1H-1,2,3-triazol-4-yl)pyridin-3-yl)-5,5-difluoropiperidin-3-yl)acetic acid] |
| > 5000 nM | CCCn1ccc(=O)c(OCc2c(-c3ccc(N4C[C@@H](CC(=O)O)CC(F)(F)C4)c(CC)n3)nnn2C)n1 [Example 111, (S)-2-(1-(2-ethyl-6-(1-methyl-5-(((4-oxo-1-propyl-1,4-dihydropyridazin-3-yl)oxy)methyl)-1H-1,2,3-triazol-4-yl)pyridin-3-yl)-5,5-difluoropiperidin-3-yl)acetic acid] |
